Assay results taken from PubChem BioAssay AID2060613 (Molecular Pharmacology Branch, DTP, NCI, 2025).
pIC50: −log10 of the molar value.

Tested on: 233499-124-R-J3-PDC complex spheroid viability
Assay: Anticancer human tumor 233499-124-R-J3-PDC patient-derived colon adenocarcinoma cell line growth inhibition [CLK]
Conditions: for pIC50: curve of first compound; for viability, T/C: stronger effect = lower value
In short: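 Patient-derived tumor cells grown as complex spheroids with HUVEC endothelial cells and mesenchymal stem cells, treated with drug combinations. Concentrations descend in half-log steps from near clinical Cmax, or from 10 microM if Cmax unknown.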

[1] = second compound 0.0316 µM, first compound 0.0316 µM
[2] = second compound 0.0316 µM, first compound 0.1 µM
[3] = second compound 0.0316 µM, first compound 0.316 µM
[4] = second compound 0.0316 µM, first compound 1 µM
[5] = second compound 0.0316 µM, first compound 3.16 µM
[6] = second compound 0.0316 µM, first compound 10 µM
[7] = second compound 0.1 µM, first compound 0.0316 µM
[8] = second compound 0.1 µM, first compound 0.1 µM
[9] = second compound 0.1 µM, first compound 0.316 µM
[10] = second compound 0.1 µM, first compound 1 µM
[11] = second compound 0.1 µM, first compound 3.16 µM
[12] = second compound 0.1 µM, first compound 10 µM
[13] = second compound 0.316 µM, first compound 0.0316 µM
[14] = second compound 0.316 µM, first compound 0.1 µM
[15] = second compound 0.316 µM, first compound 0.316 µM
[16] = second compound 0.316 µM, first compound 1 µM
[17] = second compound 0.316 µM, first compound 3.16 µM
[18] = second compound 0.316 µM, first compound 10 µM
[19] = second compound 1 µM, first compound 0.0316 µM
[20] = second compound 1 µM, first compound 0.1 µM
[21] = second compound 1 µM, first compound 0.316 µM
[22] = second compound 1 µM, first compound 1 µM
[23] = second compound 1 µM, first compound 3.16 µM
[24] = second compound 1 µM, first compound 10 µM
[25] = second compound 3.16 µM, first compound 0.0316 µM
[26] = second compound 3.16 µM, first compound 0.1 µM
[27] = second compound 3.16 µM, first compound 0.316 µM
[28] = second compound 3.16 µM, first compound 1 µM
[29] = second compound 3.16 µM, first compound 3.16 µM
[30] = second compound 3.16 µM, first compound 10 µM
[31] = second compound 10 µM, first compound 0.0316 µM
[32] = second compound 10 µM, first compound 0.1 µM
[33] = second compound 10 µM, first compound 0.316 µM
[34] = second compound 10 µM, first compound 1 µM
[35] = second compound 10 µM, first compound 3.16 µM
[36] = second compound 10 µM, first compound 10 µM
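Also: spheroids exposed to the drug combinations for seven days.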
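For viability, T/C in this document: percent viability relative to DMSO vehicle control wells taken as 100%.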

`CC(=O)O[C@H]1C(=O)[C@@]2(C)[C@H]([C@H](OC(=O)c3ccccc3)[C@]3(O)C[C@H](OC(=O)[C@H](O)[C@@H](NC(=O)c4ccccc4)c4ccccc4)C(C)=C1C3(C)C)[C@]1(OC(C)=O)CO[C@@H]1C[C@@H]2O` + CNC(=O)c1ccc(Nc2nc(OC3CCCC3)c3c(-c4ccc5nc(C)oc5c4)c[nH]c3n2)c(OC)c1 gave a pIC50 (second compound 0.0316 µM) of 6.85, a pIC50 (second compound 0.1 µM) of less than 5.00 and a pIC50 (second compound 0.316 µM) of less than 5.00. It also gave a pIC50 (second compound 1 µM) of less than 5.00, a pIC50 (second compound 3.16 µM) of less than 5.00 and a pIC50 (second compound 10 µM) of less than 5.00. It also gave a viability, T/C [1] of 80%, a viability, T/C [2] of 59.4% and a viability, T/C [3] of 18.2%. It also gave a viability, T/C [4] of 21.5%, a viability, T/C [5] of 31.4% and a viability, T/C [6] of 37.7%. For the same compound, the viability, T/C [7] was 81.2%, the viability, T/C [8] was 66% and the viability, T/C [9] was 50.7%. It also gave a viability, T/C [10] of 78.5%, a viability, T/C [11] of 72.9% and a viability, T/C [12] of 66.5%. It also gave a viability, T/C [13] of 67.9%, a viability, T/C [14] of 81% and a viability, T/C [15] of 84.8%. The viability, T/C [16] was 90.6%, the viability, T/C [17] was 78.8% and the viability, T/C [18] was 68.4%. For the same compound, the viability, T/C [19] was 91.2%, the viability, T/C [20] was 85.9% and the viability, T/C [21] was 77.5%. The viability, T/C [22] was 72.5%, the viability, T/C [23] was 96.3% and the viability, T/C [24] was 66.7%. The viability, T/C [25] was 77%, the viability, T/C [26] was 87.8% and the viability, T/C [27] was 89.5%. The viability, T/C [28] was 90.5%, the viability, T/C [29] was 83.3% and the viability, T/C [30] was 74.2%. For the same compound, the viability, T/C [31] was 67.5%, the viability, T/C [32] was 82.3% and the viability, T/C [33] was 79.1%. The viability, T/C [34] was 79%, the viability, T/C [35] was 81.1% and the viability, T/C [36] was 85.8%.
For `CCc1c2c(nc3ccc(O)cc13)-c1cc3c(c(=O)n1C2)COC(=O)[C@]3(O)CC` + CNC(=O)c1ccc(Nc2nc(OC3CCCC3)c3c(-c4ccc5nc(C)oc5c4)c[nH]c3n2)c(OC)c1, the pIC50 (second compound 0.0316 µM) was 6.94, the pIC50 (second compound 0.1 µM) was 7.46 and the pIC50 (second compound 0.316 µM) was 7.80. It also gave a pIC50 (second compound 1 µM) of 7.82, a pIC50 (second compound 3.16 µM) of 8.33 and a pIC50 (second compound 10 µM) greater than 8.50. The viability, T/C (second compound 0.0316 µM, first compound 0.00316 µM) was 76%, the viability, T/C (second compound 0.0316 µM, first compound 0.01 µM) was 56.8% and the viability, T/C [1] was 55%. For the same compound, the viability, T/C [2] was 61.8%, the viability, T/C [3] was 34.7% and the viability, T/C [4] was 18.3%. The viability, T/C (second compound 0.1 µM, first compound 0.00316 µM) was 57.5%, the viability, T/C (second compound 0.1 µM, first compound 0.01 µM) was 53.8% and the viability, T/C [7] was 47.3%. For the same compound, the viability, T/C [8] was 46.6%, the viability, T/C [9] was 31.1% and the viability, T/C [10] was 11.6%. The viability, T/C (second compound 0.316 µM, first compound 0.00316 µM) was 65.5%, the viability, T/C (second compound 0.316 µM, first compound 0.01 µM) was 50% and the viability, T/C [13] was 38.4%. For the same compound, the viability, T/C [14] was 45.1%, the viability, T/C [15] was 19.6% and the viability, T/C [16] was 11.3%. For the same compound, the viability, T/C (second compound 1 µM, first compound 0.00316 µM) was 63%, the viability, T/C (second compound 1 µM, first compound 0.01 µM) was 49.8% and the viability, T/C [19] was 40.2%. The viability, T/C [20] was 53.6%, the viability, T/C [21] was 12.3% and the viability, T/C [22] was 5.66%. The viability, T/C (second compound 3.16 µM, first compound 0.00316 µM) was 50.9%, the viability, T/C (second compound 3.16 µM, first compound 0.01 µM) was 48.6% and the viability, T/C [25] was 25.6%. The viability, T/C [26] was 18%, the viability, T/C [27] was 6.64% and the viability, T/C [28] was 5.12%. The viability, T/C (second compound 10 µM, first compound 0.00316 µM) was 51%, the viability, T/C (second compound 10 µM, first compound 0.01 µM) was 32.3% and the viability, T/C [31] was 35.1%. It also gave a viability, T/C [32] of 17.8%, a viability, T/C [33] of 8.94% and a viability, T/C [34] of 2.94%.
Work on `COc1cccc2c1C(=O)c1c(O)c3c(c(O)c1C2=O)CC(O)(C(=O)CO)CC3OC1CC(N)C(O)C(C)O1` (stereo unspecified) + CNC(=O)c1ccc(Nc2nc(OC3CCCC3)c3c(-c4ccc5nc(C)oc5c4)c[nH]c3n2)c(OC)c1 yielded a pIC50 (second compound 0.0316 µM) of 6.47, a pIC50 (second compound 0.1 µM) of 6.54 and a pIC50 (second compound 0.316 µM) of 6.81. For the same compound, the pIC50 (second compound 1 µM) was 6.85, the pIC50 (second compound 3.16 µM) was 6.94 and the pIC50 (second compound 10 µM) was 7.10. The viability, T/C [1] was 92%, the viability, T/C [2] was 85.1% and the viability, T/C [3] was 38.5%. The viability, T/C [4] was 38.5%, the viability, T/C [5] was 13.5% and the viability, T/C [6] was 6.81%. The viability, T/C [7] was 71.3%, the viability, T/C [8] was 71.7% and the viability, T/C [9] was 40.7%. For the same compound, the viability, T/C [10] was 34.2%, the viability, T/C [11] was 17% and the viability, T/C [12] was 2.92%. The viability, T/C [13] was 61.7%, the viability, T/C [14] was 62.1% and the viability, T/C [15] was 33.8%. For the same compound, the viability, T/C [16] was 13.8%, the viability, T/C [17] was 4.56% and the viability, T/C [18] was 1.31%. For the same compound, the viability, T/C [19] was 51.1%, the viability, T/C [20] was 75.6% and the viability, T/C [21] was 19.3%. The viability, T/C [22] was 1.71%, the viability, T/C [23] was 1.27% and the viability, T/C [24] was 0.38%. The viability, T/C [25] was 55%, the viability, T/C [26] was 53% and the viability, T/C [27] was 27.4%. For the same compound, the viability, T/C [28] was 1.95%, the viability, T/C [29] was 0.8% and the viability, T/C [30] was 0.35%. It also gave a viability, T/C [31] of 56.1%, a viability, T/C [32] of 48.5% and a viability, T/C [33] of 11.7%. It also gave a viability, T/C [34] of 0.74%, a viability, T/C [35] of 0.74% and a viability, T/C [36] of 0.32%.
